What was measured:
C57BL/6 mice [1] = test: In vivo expression level of Luciferase-mRNA delivered by intravenous injection (bioluminescence imaging); settings: mRNA-loaded nanoparticles, intravenous (tail vein), 5 μg Luciferase-mRNA, 6 hours
Protocol: (§1) Luciferase-mRNA was used as an mRNA model; and the cationic lipid analogues of Examples 1-5 were used to prepare drug-loaded nanoparticles according to the method of Example 6.
200 μL of nanoparticles containing 5 μg Luciferase-mRNA or the drug-loaded nanoparticles prepared above were injected into tail veins of 6-8 week-old C57BL/6 mice, and 200 μL of 1×PBS solution containing 3 mg D-Luciferin potassium salt was intraperitoneally injected into the mice 6 hours later. After waiting for 10 minutes, an in vivo expression level of the mRNA was evaluated by bioluminescence imaging.

C57BL/6 mice [2] = test: In vivo expression level of Luciferase-mRNA delivered by intramuscular injection (bioluminescence imaging); settings: mRNA-loaded nanoparticles, intramuscular (leg muscle), 5 μg Luciferase-mRNA, 6 hours
Protocol: as §1
100 μL of nanoparticles containing 5 μg Luciferase-mRNA or the drug-loaded nanoparticles prepared above were injected into the leg muscles of 6-8 week-old C57BL/6 mice, and 200 μL of 1×PBS solution containing 3 mg D-Luciferin potassium salt was intraperitoneally injected into the mice 6 hours later. After waiting for 10 minutes, an in vivo expression level of the mRNA was evaluated by bioluminescence imaging.

CCCCC/C=C\C/C=C\CCCCCCCC(=O)N(CCCN(C)C)C(C(=O)NCCCCCCCCCCCCCCCCCC)C(C)C (centres unmarked) [A1I18R2C18-2]
Fluorescence intensity of liver (C57BL/6 mice [1]; compounds of Example 1): 5.42E+04
Local fluorescence intensity (C57BL/6 mice [2]; compounds of Example 1): 7.88E+04

CCCCC/C=C\C/C=C\CCCCCCCC(=O)N(CCCCCO)C(C(=O)NCCN(C)CCNC(=O)C(C(C)C)N(CCCCCO)C(=O)CCCCCCC/C=C\C/C=C\CCCCC)C(C)C (centres unmarked) [A1I4R27C18-2]
Local fluorescence intensity (C57BL/6 mice [2]; compounds of Example 2): 1.67E+04

CCCCCCCCCCSSCCC(=O)N(CCCOC(C)C)C(C(=O)NCCN(CCNC(=O)C(C(C)C)N(CCCOC(C)C)C(=O)CCSSCCCCCCCCCC)CCNC(=O)C(C(C)C)N(CCCOC(C)C)C(=O)CCSSCCCCCCCCCC)C(C)C (centres unmarked) [A1I5R32S15]
Fluorescence intensity of spleen (C57BL/6 mice [1]; compounds of Example 3): 2.48E+05
Local fluorescence intensity (C57BL/6 mice [2]; compounds of Example 3): 1.18E+06

CCCCC/C=C\C/C=C\CCCCCCCC(=O)N(CCC)C(C(=O)NCCN(C)CCNC(=O)C(C(C)C)N(CCC)C(=O)CCCCCCC/C=C\C/C=C\CCCCC)C(C)C (centres unmarked) [A1I4R21C18-2]
Fluorescence intensity of spleen (C57BL/6 mice [1]; compounds of Example 2): 6.62E+05
Local fluorescence intensity (C57BL/6 mice [2]; compounds of Example 2): 3.17E+05

CCCCCCCCCCCCCCCCCCNC(=O)C(C(CC)CCCC)N(CCN1CCCCC1)C(=O)CCCCCCCCCCCCCCCCC (centres unmarked) [A4I18R12C18]
Fluorescence intensity of liver (C57BL/6 mice [1]; compounds of Example 1): 2.31E+03
Local fluorescence intensity (C57BL/6 mice [2]; compounds of Example 1): 1.75E+05

CCCCCCCCCCCCCCCCCCNC(=O)C(C(CC)CCCC)N(CCCN1CCOCC1)C(=O)CCCCCCCCCCCCCCCCC (centres unmarked) [A4I18R5C18]
Fluorescence intensity of liver (C57BL/6 mice [1]; compounds of Example 1): 2.68E+03
Local fluorescence intensity (C57BL/6 mice [2]; compounds of Example 1): 4.33E+05

CCCCCCCCCCSSCCC(=O)N(C(C(=O)NCCN(CCNC(=O)C(C(C)C)N(C(=O)CCSSCCCCCCCCCC)C(C)(CO)CO)CCNC(=O)C(C(C)C)N(C(=O)CCSSCCCCCCCCCC)C(C)(CO)CO)C(C)C)C(C)(CO)CO (centres unmarked) [A1I5R29S15]
Fluorescence intensity of spleen (C57BL/6 mice [1]; compounds of Example 3): 3.13E+05
Local fluorescence intensity (C57BL/6 mice [2]; compounds of Example 3): 7.63E+04

CCCCCCCCCCSSCCC(=O)N(CCCC(=O)OCC)C(C(=O)NCCN(CCNC(=O)C(C(C)C)N(CCCC(=O)OCC)C(=O)CCSSCCCCCCCCCC)CCNC(=O)C(C(C)C)N(CCCC(=O)OCC)C(=O)CCSSCCCCCCCCCC)C(C)C (centres unmarked) [A1I5R39S15]
Fluorescence intensity of spleen (C57BL/6 mice [1]; compounds of Example 3): 3.88E+04
Local fluorescence intensity (C57BL/6 mice [2]; compounds of Example 3): 2.15E+04

CCCCCCCCCCSSCCC(=O)N(C(C)C(=O)OC)C(C(=O)NCCN(CCNC(=O)C(C(C)C)N(C(=O)CCSSCCCCCCCCCC)C(C)C(=O)OC)CCNC(=O)C(C(C)C)N(C(=O)CCSSCCCCCCCCCC)C(C)C(=O)OC)C(C)C (centres unmarked) [A1I5R40S15]
Fluorescence intensity of spleen (C57BL/6 mice [1]; compounds of Example 3): 1.39E+04
Local fluorescence intensity (C57BL/6 mice [2]; compounds of Example 3): 3.86E+05

CCCCC/C=C\C/C=C\CCCCCCCC(=O)N(CCCN(C)C)C(C(=O)NCCCCCCCCCCCCCCCCCC)C(CC)CCCC (centres unmarked) [A4I18R2C18-2]
Bioluminescence intensity (C57BL/6 mice [1]; compounds of Example 1): 2.06E+07
Local fluorescence intensity (C57BL/6 mice [2]; compounds of Example 1): 2.97E+07

CCCCC/C=C\C/C=C\CCCCCCCC(=O)N(CCCOCC)C(C(=O)NCCN(C)CCNC(=O)C(C(C)C)N(CCCOCC)C(=O)CCCCCCC/C=C\C/C=C\CCCCC)C(C)C (centres unmarked) [A1I4R31C18-2]
Local fluorescence intensity (C57BL/6 mice [2]; compounds of Example 2): 5.21E+04

CCCCC/C=C\C/C=C\CCCCCCCC(=O)N(CCCCCCO)C(C(=O)NCCN(C)CCNC(=O)C(C(C)C)N(CCCCCCO)C(=O)CCCCCCC/C=C\C/C=C\CCCCC)C(C)C (centres unmarked) [A1I4R28C18-2]
Local fluorescence intensity (C57BL/6 mice [2]; compounds of Example 2): 1.72E+06

CCCC/C=C\C/C=C\CCCCCCCC(=O)N(CC(OC)OC)C(C(=O)NCCN(C)CCNC(=O)C(C(C)C)N(CC(OC)OC)C(=O)CCCCCCC/C=C\C/C=C\CCCCC)C(C)C (centres unmarked) [A1I4R34C18-2]
Local fluorescence intensity (C57BL/6 mice [2]; compounds of Example 2): 5.58E+05

CCCCC/C=C\C/C=C\CCCCCCCC(=O)N(CCCOC(C)C)C(C(=O)NCCN(C)CCNC(=O)C(C(C)C)N(CCCOC(C)C)C(=O)CCCCCCC/C=C\C/C=C\CCCCC)C(C)C (centres unmarked) [A1I4R32C18-2]
Local fluorescence intensity (C57BL/6 mice [2]; compounds of Example 2): 2.57E+04

CCCCC/C=C\C/C=C\CCCCCCCC(=O)N(C(C(=O)NCCN(C)CCNC(=O)C(C(C)C)N(C(=O)CCCCCCC/C=C\C/C=C\CCCCC)C(CO)(CO)CO)C(C)C)C(O)(CO)CO (centres unmarked) [A1I4R30C18-2]
Local fluorescence intensity (C57BL/6 mice [2]; compounds of Example 2): 2.05E+04

CCCC/C=C\C/C=C\CCCCCCCC(=O)N(CCCOC)C(C(=O)NCCN(C)CCNC(=O)C(C(C)C)N(CCCOC)C(=O)CCCCCCC/C=C\C/C=C\CCCCC)C(C)C (centres unmarked) [A1I4R43C18-2]
Local fluorescence intensity (C57BL/6 mice [2]; compounds of Example 2): 6.57E+04

CCCC/C=C\C/C=C\CCCCCCCC(=O)N(CCOCCO)C(C(=O)NCCN(C)CCNC(=O)C(C(C)C)N(CCOCCO)C(=O)CCCCCCC/C=C\C/C=C\CCCCC)C(C)C (centres unmarked) [A1I4R36C18-2]
Local fluorescence intensity (C57BL/6 mice [2]; compounds of Example 2): 5.68E+04

CCCC/C=C\C/C=C\CCCCCCCC(=O)N(C(CC)COC)C(C(=O)NCCN(C)CCNC(=O)C(C(C)C)N(C(=O)CCCCCCC/C=C\C/C=C\CCCCC)C(CC)COC)C(C)C (centres unmarked) [A1I4R33C18-2]
Local fluorescence intensity (C57BL/6 mice [2]; compounds of Example 2): 1.02E+05

CCCC/C=C\C/C=C\CCCCCCCC(=O)N(CCCO)C(C(=O)NCCN(C)CCNC(=O)C(C(C)C)N(CCCO)C(=O)CCCCCCC/C=C\C/C=C\CCCCC)C(C)C (centres unmarked) [A1I4R42C18-2]
Local fluorescence intensity (C57BL/6 mice [2]; compounds of Example 2): 7.04E+04

CCCC/C=C\C/C=C\CCCCCCCC(=O)N(C(C(=O)NCCN(C)CCNC(=O)C(C(C)C)N(C(=O)CCCCCCC/C=C\C/C=C\CCCCC)C(C)(CO)CO)C(C)C)C(C)(CO)CO (centres unmarked) [A1I4R29C18-2]
Local fluorescence intensity (C57BL/6 mice [2]; compounds of Example 2): 2.99E+04

CCCCCCCC/C=C\CCCCCCCC(=O)N(CCN(C)C)C(C(=O)NCCCCCCCCCCCCCCCCCC)C(C)C (centres unmarked) [A1I18R1C18-1]
Fluorescence intensity of liver (C57BL/6 mice [1]; compounds of Example 1): 5.08E+05

CCCCCCCCCCCCCCCCCCNC(=O)C(C(CC)CCCC)N(CCN(C)C)C(=O)CCCCCCCCCCCCCCCCC (centres unmarked) [A4I18R1C18]
Fluorescence intensity of liver (C57BL/6 mice [1]; compounds of Example 1): 3.65E+05

CCCCCCCC/C=C\CCCCCCCC(=O)N(CCOC)C(C(=O)NCCN(C)CCNC(=O)C(C(CC)CCCC)N(CCOC)C(=O)CCCCCCC/C=C\CCCCCCCC)C(CC)CCCC (centres unmarked) [A4I4R23C18-1]
Fluorescence intensity of spleen (C57BL/6 mice [1]; compounds of Example 2): 6.08E+04

CC/C=C\C/C=C\C/C=C\CCCCCCCC(=O)N(CCCN(C)C)C(C(=O)NCCCCCCCCCCCCCCCCCC)C1CCCCC1 (centres unmarked) [A23I18R2C18-3]
Fluorescence intensity of liver (C57BL/6 mice [1]; compounds of Example 1): 9.49E+05

CCCCCCCCCCCCCCCCCCNC(=O)C(C(C)C)N(CCCN(CC)CC)C(=O)CCCCCCCCCCCCCCCCC (centres unmarked) [A1I18R3C18]
Fluorescence intensity of liver (C57BL/6 mice [1]; compounds of Example 1): 3.91E+03

CCCC/C=C\C/C=C\CCCCCCCC(=O)N(CC1CCCO1)C(C(=O)NCCN(C)CCNC(=O)C(C(C)C)N(CC1CCCO1)C(=O)CCCCCCC/C=C\C/C=C\CCCCC)C(C)C (centres unmarked) [A1I4R35C18-2]
Local fluorescence intensity (C57BL/6 mice [2]; compounds of Example 2): 3.38E+05

CCCCCCCC/C=C\CCCCCCCC(=O)N(CCO)C(C(=O)NCCN(C)CCNC(=O)C(C1CC1)N(CCO)C(=O)CCCCCCC/C=C\CCCCCCCC)C1CC1 (centres unmarked) [A21I4R22C18-1]
Fluorescence intensity of spleen (C57BL/6 mice [1]; compounds of Example 2): 1.76E+04

CCCCC/C=C\C/C=C\CCCCCCCC(=O)N(CCCN(CC)CC)C(C(=O)NCCCCCCCCCCCCCCCCCC)C1CCCCC1 (centres unmarked) [A23I18R3C18-2]
Fluorescence intensity of liver (C57BL/6 mice [1]; compounds of Example 1): 4.86E+06

CCCCC/C=C\C/C=C\CCCCCCCC(=O)N(CC1CCOCC1)C(C(=O)NCCN(C)CCNC(=O)C(C(C)C)N(CC1CCOCC1)C(=O)CCCCCCC/C=C\C/C=C\CCCCC)C(C)C (centres unmarked) [A1I4R48C18-2]
Local fluorescence intensity (C57BL/6 mice [2]; compounds of Example 2): 8.55E+04

CCCCC/C=C\C/C=C\CCCCCCCC(=O)N(CCCN(C)C)C(C(=O)NCCN(C)CCNC(=O)C(C(C)C)N(CCCN(C)C)C(=O)CCCCCCC/C=C\C/C=C\CCCCC)C(C)C (centres unmarked) [A1I4R2C18-2]
Fluorescence intensity of spleen (C57BL/6 mice [1]; compounds of Example 2): 3.18E+03

CCCCCCCC/C=C\CCCCCCCC(=O)N(CCCN(C)C)C(C(=O)NCCN(C)CCNC(=O)C(C(C)C)N(CCCN(C)C)C(=O)CCCCCCC/C=C\CCCCCCCC)C(C)C (centres unmarked) [A1I4R2C18-1]
Bioluminescence intensity (C57BL/6 mice [1]; compounds of Example 2): 8.80E+02

CCCCC/C=C\C/C=C\CCCCCCCC(=O)N(CCN(CC)CC)C(C(=O)NCCCCCCCCCCCCCCCCCC)C(CC)CCCC (centres unmarked) [A4I18R8C18-2]
Fluorescence intensity of liver (C57BL/6 mice [1]; compounds of Example 1): 2.48E+04

— patent publication US20250161216A1, “CATIONIC LIPID ANALOGUES, COMPOSITIONS AND USES THEREOF” (GUANGZHOU LIDE BIOMEDICINE TECHNOLOGY CO., LTD., priority 2022, published 2025)
